The source of these data is patent US20130059787A1, “METHODS OF USING HUMAN PROTEIN KINASE C DELTA VIII AS A BIOMARKER” (UNITED STATES DEPARTMENT OF VETERAN AFFAIRS, priority 2010, published 2013).

One assay relates to PKCδVIII mRNA. Conditions: RA about 24 h; Jiang et al. 2008; cited from earlier work.
Another assay deals with APP/PS1 transgenic mice. The following applies: RA treatment; cited from earlier work.
Assay [1] has as its system 5′ splice site II on PKCδ exon 10. Kind of assay: Mutated pSPL3_PKCδ** minigene (SC35 cis-element mutated) in NT2 cells, RT-PCR. Type of assay: cell-based, human. Conditions: RA about 10 μM, about 24 h. An excerpt:
FIG. 11 is a series of images depicting mutation of putative SC35 binding site inhibits RA-mediated utilization of 5′ splice site II utilization on the minigene. (a) schematic of the position and sequence of the putative SC35 cis-element on the pSPL3_PKCδ splicing minigene. Arrows indicate the position of primers used in PCR analysis. Putative SC35 binding site ggccaaag (SEQ ID No: 17) was mutated to tagcccaga (SEQ ID No: 18) on the minigene. (b) resulting mutated minigene pSPL3_PKCδ** was transfected into NT2 cells. In separate wells, the mutated minigene pSPL3_PKCδ** was co-transfected with either about 2 μg of SC35 or SF2/ASF. The original pSPL3_PKCδ splicing minigene was also transfected in a separate well. After overnight transfection, NT2 cells were treated with or without about 10 μM RA for about 24 h. Total RNA was extracted and RT-PCR performed using primers for PKCδ exon 10 sense and SA antisense as shown. About 5% of the products were separated by PAGE and silver stained for visualization. SSI: usage of 5′ splice site I; SSII: usage of 5′ splice site II. Graph represents percent exon inclusion calculated as SS II/(SS II+SSI)×100 and is representative of three experiments performed separately. […]

The test system of the next assay is SR proteins. In words: Western blot of NT2 whole cell lysates with mAb104 antibody. Type of assay: cell-based, human. Conditions: RA about 10 μM, about 24 h; NT2 cells. As to the method:
FIG. 6 is a series of images illustrating the detection of SR proteins involved in RA-mediated PKXδVIII expression. NT2 cells were treated with RA (about 10 μM) for about 24 h or without RA (control), and Western blot analysis was performed on whole cell lysates using (a) mAb104 antibody that detects all SR proteins and (b) specific antibodies as indicated in the figure. Molecular masses are indicated (kDa).
Cell lysates (about 40 μg) were separated on 10% SDS-PAGE. […] In apoptotic cells, PARP is cleaved by caspase 3 into an 85 kDa fragment which is detected in addition to the 116 KDa fragment using anti-PARP antibody in western blot analysis. […] (Putt K S, Beilman G J, and H. P J., Direct quantitation of poly(ADP-ribose) polymerase (PARP) activity as a means to distinguish necrotic and apoptotic death in cell and tissue samples. Chembiochem, 2005. 6: p. 53-55)
(SR) proteins that bind to exonic or intronic splicing enhancers (ESE, ISE) on the pre-mRNA. […] NT2 cells were treated with or without RA (about 24 h), and whole cell lysates were analyzed by Western blot analysis using mAb104 antibody that simultaneously detects the phosphoepitopes on all SR proteins. […]
For orientation: Immunoblotting shows a protein as a band on a membrane.

`CC1=C(/C=C/C(C)=C/C=C/C(C)=C/C(=O)O)C(C)(C)CCC1` [RA, all-trans-retinoic acid]: in the assay with PKCδVIII mRNA, the “expression of PKCδVIII in NT2 cells” value was “significantly increases”. In addition, in the assay with APP/PS1 transgenic mice, the “APP phosphorylation and processing” value is “decreased”; the Aβ deposition result was “decreased”; the “activation of microglia and astrocytes” value was “decreased”; the neuronal degeneration result is on record as “attenuated”. In addition, in the assay on APP/PS1 transgenic mice, the “spatial learning and memory” value is “improved”; the tau phosphorylation entry was “decreased”. Also, the “selection of 5′ splice site II on PKCδ exon 10 in pSPL3_PKCδ**-mutated minigene” value in assay [1] is given as “did not promote”. Moreover, in the assay with SR proteins, the “SR protein at ~30 kDa expression (mAb104)” value is listed as “increased in expression”.
